How the values were obtained:
[1] = system: T1, FsCDH (class III cellobiose dehydrogenase); test: DCIP reduction, plate reader, Michaelis-Menten fit; format: biochemical, Fusarium solani; conditions: 0.3 mM DCIP, 50 mM potassium phosphate pH 6.0
T1 construct: gene CDH; flavocytochrome with cytochrome and dehydrogenase domains; recombinant secreted in Komagataella phaffii, FPLC purified
Excerpt: DCIP reduction, plate reader, Michaelis-Menten fit on FsCDH (class III cellobiose dehydrogenase)

NcAA9C (NcLPMO9C) = target: T2, NcAA9C (NcLPMO9C) (Neurospora crassa, UniProt Q7SHI8); test: batch conversion, RDE H2O2 consumption, HPAEC-PAD and MALDI-TOF-MS of products; format: biochemical; conditions: H2O2 cosubstrate, 5 mM ascorbic acid, 30 mM sodium acetate pH 5.0, 100 mM KCl
T2 construct: gene gh61-3; recombinant secreted in Komagataella phaffii, FPLC purified; copper enzyme, C4-acting
T2 sequence (Q7SHI8 17-359): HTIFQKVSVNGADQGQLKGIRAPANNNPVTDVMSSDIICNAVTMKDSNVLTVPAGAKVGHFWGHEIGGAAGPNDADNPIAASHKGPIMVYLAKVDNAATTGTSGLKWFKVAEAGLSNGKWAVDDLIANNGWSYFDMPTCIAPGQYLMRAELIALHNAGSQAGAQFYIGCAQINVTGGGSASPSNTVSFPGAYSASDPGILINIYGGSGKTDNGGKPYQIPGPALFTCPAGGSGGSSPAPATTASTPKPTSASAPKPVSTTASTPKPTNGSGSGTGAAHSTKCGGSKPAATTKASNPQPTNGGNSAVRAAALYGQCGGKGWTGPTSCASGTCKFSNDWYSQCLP

SMILES: OC[C@H]1O[C@@H](O[C@H]2[C@H](O)[C@@H](O)[C@H](O[C@H]3[C@H](O)[C@@H](O)C(O)O[C@@H]3CO)O[C@@H]2CO)[C@H](O)[C@@H](O)[C@@H]1O (stereo partly shown) [cellotriose]
- Km [1]: 16.1 ± 2.9 µM

SMILES: OC[C@H]1OC(O)[C@H](O)[C@@H](O)[C@@H]1O[C@@H]1O[C@H](CO)C(O)(O)[C@H](O)[C@H]1O (stereo partly shown) [Glc4gemGlc]
- Km ([1]; sample not treated with β-glucosidase, 1 to 100 μM): 30.6 ± 8.3 µM

SMILES: OC[C@H]1O[C@@H](O[C@H]2[C@H](O)[C@@H](O)C(O)O[C@@H]2CO)[C@H](O)[C@@H](O)[C@@H]1O (stereo partly shown) [cellobiose]
- Km [1]: 21.4 ± 3 µM

SMILES: OC[C@H]1O[C@@H](O[C@H]2[C@H](O)[C@@H](O)[C@H](O[C@H]3[C@H](O)[C@@H](O)[C@H](O[C@H]4[C@H](O)[C@@H](O)[C@H](O[C@H]5[C@H](O)[C@@H](O)C(O)O[C@@H]5CO)O[C@@H]4CO)O[C@@H]3CO)O[C@@H]2CO)[C@H](O)[C@@H](O)[C@@H]1O (stereo partly shown) [cellopentaose]
- batch conversion, RDE H2O2 consumption, HPAEC-PAD and MALDI-TOF-MS of products (NcAA9C (NcLPMO9C)): a batch reaction employing NcAA9C, H2O2 as cosubstrate
